Key:
[1] = Phase 1 Study ABI-1648-006, multiple oral dose pharmacokinetics; conditions: for Tmax / AUC / Cmax / half-life: human, plasma; for AUC0-Tau/Dose Mean / Cmax/Dose Mean: normalized to 1 mg/kg
Description: Study ABI-1648-006 was conducted to evaluate the PK of single and multiple oral doses of 2.5, 5, 12.5, and 25 mg administered to healthy male and female volunteers.

[2] = human, in vivo
[3] = Non-clinical oral pharmacokinetics, all species evaluated; type: in vivo; conditions: oral administration
Description: Since the PK profile of rifalazil has been studied in man, only a brief summary of the non-clinical PK is provided. Overall, the absorption, distribution, metabolism, and elimination of rifalazil observed in the animals studied are similar to those observed in man.
Peak plasma concentrations were observed from 4 to 18 hours after oral administration.

Chlamydia = assay: Phase 2 study in men with non-gonococcal urethritis, eradication of Chlamydia; type: in vivo, human
Text: (§1) The use of rifalazil in the treatment of PAOD is supported by both preclinical and clinical lines of evidence.
Due to the recalcitrant response of C. pneumoniae to antibiotic therapy, the duration of therapy is thought to be an important parameter for optimizing treatment. Previous large well-controlled randomized studies have tested long term antibiotic therapy in the CHD population. A longer term treatment schedule with rifalazil than was utilized in eradicating C. trachomatis in NGU (single dose) may represent a preferred therapeutic regimen for producing a clinically beneficial effect on C. pneumoniae in patients with PAOD. Further, dosing of PAOD patients with rifalazil for a duration of 8 weeks may further optimize therapeutic effect against C. pneumoniae in these patients. Chlamydia pneumoniae infects the vasculature, and to elicit significant antibacterial activity against this pathogen, longer courses of treatment than those directed at C. trachomatis (i.e., single dose) are preferred. Pharmacokinetic and pharmacodynamic modeling predict that this dosage will provide continuous plasma and tissue concentrations of rifalazil above the MIC90 for C. pneumoniae for over 9 weeks. A single dose of 25 mg rifalazil administered once per week for up to 4 weeks was not associated with significant adverse effects in Phase 1 studies. […]

[4] = Phase 1 pharmacokinetic analyses by gender, single or multiple doses 2.5-50 mg; type: in vivo, human
Description: There were no significant differences between males and females for AUC0-∞ when data were normalized to 1 mg/kg following single doses of 2.5 to 50 mg rifalazil (see FIG. 3 and FIG. 4).
The Vdβ/F was large indicating extensive distribution in the body. […] The mean minimum plasma concentrations (Cmin) of rifalazil over time during 5 days of dosing with 2.5 and 5 mg rifalazil increased from Days 2-6 in both males and females at both dose levels.

C. pneumoniae [5] = assay: Potency against C. pneumoniae compared with roxithromycin
Text: as §1

[6] = Phase 1 Study ABI-1648-009, food effect on PK of single 25-mg oral dose
[7] = Non-clinical oral pharmacokinetics in the rat; type: in vivo; conditions: for bioavailability: rat, plasma, po
Description: In rats and dogs, the Vdβ/F following oral administration was 40-80 L/kg. […] The highest mean Cmax observed was in the wall of the GI tract and occurred approximately 1 hour post-dose. […] A large tissue compartment of rifalazil is considered important for efficacy against Chlamydia given the intracellular nature of Chlamydia infection.

[8] = Phase 1 single-dose study (2.5, 5, 12.5, 25 mg), adverse events; type: in vivo, human
Description: Several Phase 1 studies of rifalazil administration have been carried out using 25 mg single doses. In one such study, sixteen patients received single doses of 25 mg. Overall, 75% of patients (12/16) reported treatment-emergent adverse events (AEs). […] However, for all dose groups, the incidence of AEs was higher for females than for males, and this difference was also observed in the placebo group. At 25 mg, […] of females (31/39) and 55% of males (16/29) reported treatment-emergent AEs. The AEs with an incidence greater than or equal to 10% were: […]

C. pneumoniae [9] = assay: Rabbit model of atherosclerosis accelerated by C. pneumoniae infection, cholesterol diet; conditions: C. pneumoniae-infected rabbits; rifalazil 5 mg/kg or azithromycin 30 mg/kg PO daily 1 week then twice weekly 6 weeks; 19 weeks after beginning treatment
Description: Thirty received three separate C. pneumoniae inoculations performed at 3-week intervals. Similarly, 15 control rabbits were intranasally inoculated with 1 mL of normal saline under the same conditions.
Nineteen weeks after beginning antibiotic treatment, the rabbits were euthanized. After euthanasia, hearts were examined histologically and by immunofluorescence. Animal serum samples were also examined for seropositivity to the infecting organism.

Structure (SMILES): CO[C@H]1/C=C/O[C@@]2(C)Oc3c(C)c(O)c4c(=O)c(c5oc6cc(N7CCN(CC(C)C)CC7)cc(O)c6nc-5c4c3C2=O)NC(=O)/C(C)=C\C=C\[C@H](C)[C@H](O)[C@@H](C)[C@@H](O)[C@@H](C)[C@H](OC(C)=O)[C@@H]1C [rifalazil, 3′-hydroxy-5′-(4-isobutyl-1-piperazinyl) benzoxazinorifamycin]
- Tmax ([1]; both, po): 4 to 6.3 h
- AUC ([1]; female, oral, 2.5 mg): 98.2 ng·h/mL
- Cmax ([1]; female, oral, 2.5 mg): 7 ng/mL
- Tmax ([1]; female, oral, 2.5 mg): 4.3 h
- half-life ([1]; female, oral, 2.5 mg): 140 h
- AUC ([1]; female, oral, 5 mg): 197 ng·h/mL
- Cmax ([1]; female, oral, 5 mg): 14.3 ng/mL
- Tmax ([1]; female, oral, 5 mg): 5.3 h
- half-life ([1]; female, oral, 5 mg): 174 h
- AUC ([1]; female, oral, 12.5 mg): 339 ng·h/mL
- Cmax ([1]; female, oral, 12.5 mg): 19.1 ng/mL
- Tmax ([1]; female, oral, 12.5 mg): 6.3 h
- half-life ([1]; female, oral, 12.5 mg): 86.5 h
- half-life ([1]; female, po): 86 to 140 h
- AUC0-Tau/Dose Mean ([1]; females, 2.5 mg QD × 5 days): 2540.1
- Cmax/Dose Mean ([1]; females, 2.5 mg QD × 5 days): 184.1
- AUC0-Tau/Dose Mean ([1]; females, 5 mg QD × 5 days): 2539.0
- Cmax/Dose Mean ([1]; females, 5 mg QD × 5 days): 183.6
- AUC0-Tau/Dose Mean ([1]; females, 12.5 mg × 2 doses): 1614.0
- Cmax/Dose Mean ([1]; females, 12.5 mg × 2 doses): 90.6
- AUC ([1]; male, oral, 2.5 mg): 178 ng·h/mL
- Cmax ([1]; male, oral, 2.5 mg): 8.5 ng/mL
- Tmax ([1]; male, oral, 2.5 mg): 4.3 h
- half-life ([1]; male, oral, 2.5 mg): 134 h
- AUC ([1]; male, oral, 5 mg): 261 ng·h/mL
- Cmax ([1]; male, oral, 5 mg): 17.3 ng/mL
- Tmax ([1]; male, oral, 5 mg): 4 h
- half-life ([1]; male, oral, 5 mg): 119 h
- AUC ([1]; male, oral, 12.5 mg): 398 ng·h/mL
- Cmax ([1]; male, oral, 12.5 mg): 20.9 ng/mL
- Tmax ([1]; male, oral, 12.5 mg): 6.2 h
- half-life ([1]; male, oral, 12.5 mg): 120 h
- half-life ([1]; male, po): 118 to 134 h
- AUC0-Tau/Dose Mean ([1]; males, 2.5 mg QD × 5 days): 5788.5
- Cmax/Dose Mean ([1]; males, 2.5 mg QD × 5 days): 279.2
- AUC0-Tau/Dose Mean ([1]; males, 5 mg QD × 5 days): 4152.6
- Cmax/Dose Mean ([1]; males, 5 mg QD × 5 days): 273.7
- AUC0-Tau/Dose Mean ([1]; males, 12.5 mg × 2 doses): 2357.9
- Cmax/Dose Mean ([1]; males, 12.5 mg × 2 doses): 124.2
- overall extent of metabolism [2]: less than 3 % of the administered dose
- Cmax and AUC as a function of dose [3]: dose-dependent but not dose-proportional
- anti-chlamydial activity in patients with NGU (Chlamydia; oral 25 mg): significant anti-chlamydial activity
- patients in whom Chlamydia was eradicated (Chlamydia; single oral dose): > 86%
- steady state ([4]; after 5 days of dosing with 2.5 and 5 mg): does not appear that steady state was reached
- half-life ([4]; both sexes, human, plasma, oral, following single doses, read-out: mean elimination t1/2): 100 to 150 h
- half-life ([4]; both sexes, human, plasma, oral, multiple dosing, up to 5 days, read-out: mean elimination t1/2): 87 to 174 h
- half-life ([4]; both sexes, human, plasma, oral, read-out: t1/2 (converted)): ~100 h
- Tmax ([4]; both sexes, human, plasma, oral, single or multiple doses 2.5-50 mg, males and females, read-out: mean time to maximum concentration (Tmax)): 4 to 6 h
- Vdβ/F ([4]; in vivo): large
- exposure (mean Cmax and AUC0-∞) as a function of dose ([4]; males and females, 2.5 to 50 mg, increase not dose proportional): increased with rifalazil dose
- potency against C. pneumoniae relative to roxithromycin (C. pneumoniae [5]): 2000 times
- Tmax ([6]; male, human, plasma, oral, 25 mg): ~3 h
- absorption (Cmax and AUC) fasted versus fed ([6]; overnight fast compared with 30% or 60% fat meal, single 25 mg): lower
- bioavailability ([7]; female rats, 3 mg/kg): 28.9%
- bioavailability ([7]; female rats, 100 mg/kg): 6.1%
- bioavailability ([7]; male rats, 3 mg/kg): 43.5%
- bioavailability ([7]; male rats, 100 mg/kg): 11.7%
- Vdβ/F ([7]; rats, oral administration): 40 to 80 L/kg
- males reporting treatment-emergent AEs ([8]; at 25 mg (16/29)): 55%
- females reporting treatment-emergent AEs ([8]; at 25 mg (31/39)): 88%
- incidence of Bacteria in urine ([8]; single dose 25 mg): 19%
- incidence of Blood present in urine ([8]; single dose 25 mg): 13%
- incidence of Body temperature increased ([8]; single dose 25 mg): 25%
- incidence of Headache ([8]; single dose 25 mg): 38%
- incidence of Lymphocyte count decreased ([8]; single dose 25 mg): 31%
- incidence of Monocyte count increased ([8]; single dose 25 mg): 13%
- incidence of Nausea ([8]; single dose 25 mg): 13%
- incidence of Neutrophil count increased ([8]; single dose 25 mg): 13%
- incidence of Pharyngitis ([8]; single dose 25 mg): 13%
- incidence of White blood cells (WBCs) in urine ([8]; single dose 25 mg): 19%
- patients reporting treatment-emergent adverse events ([8]; single dose 25 mg, 16 patients): 75%
- Plaque Area Stenosis (%) (C. pneumoniae [9]): 24.2%

From patent US20070112018A1, “Treatment of peripheral arterial occlusive disease” (priority 2005, published 2007)
